Columns and labels:
[1] = human
[2] = human; remark: listed apart in the source
[3] = human; remark: listed apart in the source
[4] = human; remark: listed apart in the source
[5] = human; remark: listed apart in the source
[6] = human, serum
[7] = human, serum, 4383 h
[8] = human; remark: listed apart in the source
[9] = Times to onset, minimal and maximal, observed in the indexed observations. [column 'DELAI' in source]; conditions: human
[10] = Highest frequency of acute liver toxicity observed during clinical trials, expressed as a percentage. [column '% AIGUE' in source]; conditions: human
[11] = human; remark: listed apart in the source
[12] = Presence of at least one case with successful reintroduction. [column 'REINT' in source]; conditions: human
[13] = human; remark: listed apart in the source
[14] = human, serum; remark: listed apart in the source
[15] = human; remark: listed apart in the source
[16] = Highest frequency of moderate liver toxicity observed during clinical trials, expressed as a percentage. [column '% BIOL' in source]; conditions: human
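Throughout, for Hepatotoxicity (association with vascular disease): count of indexed literature references reporting vascular liver injury in humans, e.g. peliosis hepatitis, hepatic veno-occlusive disease or Budd-Chiari syndrome.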
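Throughout, for Hepatotoxicity (benign tumour): value is a count of indexed literature references citing a benign tumour confirmed by histopathology.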
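Throughout, for Hepatotoxicity (choleostasis): human cholestatic liver injury, shown by histopathology or by peak ALT or AST elevation over alkaline phosphatase ratio below 2, value counts indexed literature reports.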
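Throughout, for Hepatotoxicity (chronic liver disease): chronic liver injury confirmed by histopathology or persistently raised serum aminotransferase activity beyond 6 months, value given as the count of indexed literature references.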
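Throughout, for Hepatotoxicity (cirrhosis): value is a count of indexed literature references reporting cirrhosis confirmed by histopathology.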
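Throughout, for Hepatotoxicity (cytolytic): human cytolytic liver injury, shown by histopathology or by a ratio above 5 of peak ALT or AST elevation to alkaline phosphatase elevation, value counts indexed references.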
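Throughout, for Hepatotoxicity (granulomatous hepatitis): value is a count of indexed literature references reporting granulomatous liver disease confirmed by histopathology.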
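Throughout, for Hepatotoxicity (malignant tumour): malignant tumour confirmed by histopathology, value gives the count of indexed literature references reporting it.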
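Throughout, for Hepatotoxicity (severe hepatitis): human clinical data: severe hepatitis, meaning potentially life-threatening liver failure or clinically observed cases, the value counts how many indexed literature references report it.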
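Throughout, for Hepatotoxicity (steatosis): steatosis confirmed by histopathology, value is the count of indexed references.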

SMILES	Hepatotoxicity (choleostasis) [1]	Hepatotoxicity (severe hepatitis) [2]	Hepatotoxicity (association with vascular disease) [3]	Hepatotoxicity (steatosis) [4]	Hepatotoxicity (granulomatous hepatitis) [5]	Hepatotoxicity (moderate) [6]	Hepatotoxicity (chronic liver disease) [7]	Hepatotoxicity (benign tumour) [8]	Hepatotoxicity (time to onset) [9]	Hepatotoxicity (acute) [10] [%]	Hepatotoxicity (malignant tumour) [11]	Hepatotoxicity (successful reintroduction) [12]	Hepatotoxicity (cirrhosis) [13]	Hepatotoxicity (acute) [14]	Hepatotoxicity (cytolytic) [15]	Hepatotoxicity (moderate) [16] [%]	further results
Nc1cc(N2CCCCC2)nc(N)[n+]1[O-] [MINOXIDIL]	0	0	0	0	0	5	0	0	3 days - 1 year	0	0	yes	0	0	0	4.3	–
CCc1c(C)[nH]c2c1C(=O)C(CN1CCOCC1)CC2 (stereo not given) [MOLINDONE]	1	0	0	0	0	2	0	0	1 month	0	0	yes	0	1	1	0	–
CN(C)Cc1ccc(CSCCN/C(=C\[N+](=O)[O-])NCc2ccc3c(c2)OCO3)o1 [NIPEROTIDINE]	–	–	0	0	–	0	0	0	15 days - 7 months	–	0	yes	0	2	–	–	Hepatotoxicity (choleostasis) ([1]; Liver): 2; Hepatotoxicity (severe hepatitis) ([2]; Liver): 2; Hepatotoxicity (granulomatous hepatitis) ([5]; Liver): 0; Hepatotoxicity (acute) ([10]; Liver): 0%; Hepatotoxicity (cytolytic) ([15]; Liver): 2; Hepatotoxicity (moderate) ([16]; Liver): 0%
CC[C@]1(O)CC[C@H]2[C@@H]3CCC4=CC(=O)CC[C@@H]4[C@H]3CC[C@@]21C [NORETHANDROLONE]	6	2	3	0	0	3	0	2	2 weeks - 4.5 years	0	1	yes	0	11	0	24	–
Cc1nccn1CC1CCc2c(c3ccccc3n2C)C1=O (stereo not given) [ONDANSETRON]	0	0	0	0	0	23	0	0	8 days - 9 days	0	0	yes	0	1	0	33	–

From ChEMBL document CHEMBL3137667, “[Drug-induced liver injury; fourteenth updated edition of the bibliographic database of liver injuries and related drugs]” (Gastroenterol Clin Biol, 2004)
